Test results from patent publication US10836792B2, “Retro-inverso peptide inhibitors of cell migration, extracellular matrix and endothelial invasion by tumor cells” (ISTITUTO NAZIONALE TUMORI IRCCS “FONDAZIONE G. PASCALE”, priority 2016, dated 2020).
Non-standard residues stand in square brackets, D forms with d. Residues, ends and D or L forms follow the SMILES beside them. Aib = CC(C)(N)C(=O)O

Legend:
Type in all cases: cell-based, human
[1] = system: metastatic melanoma A375M6; assay: Matrigel invasion (xCELLigence RTCA), A375M6; settings: 10 nM, 20 hrs
Experimental: FIG. 8 At the concentration of 10 nM the retro-inverso peptide RI-3 prevents matrigel invasion of tumor cells from human osteosarcoma Saos-2 (A), chondrosarcoma Sarc (B), melanoma A375 (C), metastatic melanoma A375M6 (D), ovarian carcinoma SKOV-3 cells (E), or primary ovarian cancer cells derived from a tumor excision (OV-53) (F), as monitored in real-time for 20 hr as changes in cell index by the xCELLigence RTCA system (Example 8).
To investigate the ability of RI-3 to prevents matrigel invasion of tumor cells form different tissue origins, human osteosarcoma Saos-2 (A), chondrosarcoma Sarc (B) melanoma A375 (C), metastatic melanoma A375M6 (D), ovarian carcinoma SKOV-3 cells (E) or primary ovarian cancer cells derived from a tumor excision (OV-53) (F) were seeded on polymerized matrigel and allowed to invade matrigel in the absence (None) or in the presence of 10 nM RI-3. Cell invasion was monitored in real-time for 20 hrs as changes in cell index by the xCELLigence RTCA system. Data represent mean±SD from quadruplicate experiments. All cell lines were able to cross matrigel, although to a different extent. In all case RI-3 reduced matrigel invasion by about 30%, 31%, 64%, 57%, 53% and 68%, of Saos-2, Sarc, A375, A375M6, SKOV-3 and OV-53 cells, respectively.

HUVECs = assay: Endothelial tube formation on matrigel; settings: 10 nM
Experimental: FIG. 10 At the concentration of 10 nM the retro-inverso peptide RI-3 inhibits both FBS (61%) and VEGF-triggered (75%) endothelial tube formation. (A) representative pictures taken with an inverted microscope at 100× magnifications. (B) quantitative analysis (Example 10).
Endothelial cells undergo morphological differentiation into an extensive network of capillary-like structures consisting of highly organized three-dimensional cords when seeded on matrigel in the presence of a pro-angiogenic stimuli. HUVECs were suspended in medium (CTRL) or medium with 10% FBS or 40 ng/ml VEGF165, without (None) or with 10 nM RI-3 and seeded on matrigel-coated plates for 6 hrs at 37° C., 5% CO2. Representative pictures were taken with an inverted microscope at 100× magnifications. Scale bar: 10 μm (A). Quantitative analysis of tube formation was calculated as a percentage of tubes formed by cord-like structures counted in the absence of any angiogenic stimulus and considered as 100% (CTRL). Data represent means±SD of two independent experiments performed in duplicate. Statistical significance was calculated against none with *p<0.05, **p<0.001 (B). Both FBS and VEGF promoted endothelial tube formation, reaching 352% and 620%, respectively, above basal. The retro-inverso peptide RI-3 reduced FBS- and VEGF-dependent tube formation by 61% and 75%, respectively.

melanoma A375 = assay: Trans-endothelial migration through HUVEC monolayer (xCELLigence RTCA), A375; settings: 10 nM, 5 hrs
Experimental: FIG. 9 At the concentration of 10 nM the retro-inverso peptide RI-3 affects trans-endothelial migration of human chondrosarcoma Sarc (A), melanoma A375 (B), ovarian carcinoma SKOV-3 (C) cells, or THP1 monocytes (D), as monitored by the xCELLigence RTCA system (Example 9).
The entry of tumor cells into bloodstream is one of the earliest events of the metastatic process. The ability of RI-3 to affect trans-endothelial migration of human chondrosarcoma Sarc (A) melanoma A375 (B), ovarian carcinoma SKOV-3 (C) cells, or THP1 monocytes (D) was monitored by the xCELLigence RTCA system. Human Umbilical Vein Endothelial Cells (HUVEC) (1×10^4 cells/well) suspended in growth medium, were allowed to grow for 20-25 hrs until they form a confluent monolayer, prior to seeding Sarc, A375, SKOV-3, or THP-1 cells (1×10^4 cells/well) in growth medium in the absence (None) or in the presence of 10 nM RI-3. The experiments were performed twice in quadruplicate. When cells cross the endothelial monolayer, there is a drop in electrical resistance which is monitored in real-time for 5 hrs as the cell index changes due to the rupture of endothelial monolayer. All cell lines were able to reduce endothelial monolayer integrity. The addition of 10 nM RI-3 inhibited the capability of Sarc, A375, SKOV-3, and THP-1 cells to disrupt endothelial monolayers by 17%, 22%, 58%, and 36% respectively.

HT1080 cells = assay: FBS-directed migration of HT1080 cells in Boyden chambers; settings: 10 nM peptide, 10% FBS, 4 hrs
Experimental: FIG. 4 Retro-inverso peptides inhibit FBS-directed migration of HT1080 cells in a dose dependent manner (Example 4).
To assess whether retro-inverso peptides exert some effect on directional cell migration, HT1080 cells were allowed to migrate for 4 hrs in Boyden chambers toward serum-free medium (CTRL), 10% FBS (None) or 10% FBS mixed with peptides, each tested at 10 nM concentration. For quantitative analysis, the basal values assessed in the absence of FBS (CTRL) was taken as 100% and all values were reported relative to that. Data are the means±SD of two independent experiments, performed in triplicate. Statistical significance calculated against None with *p<0.01, **p<0.001 (A). All retro-inverso peptides caused a reduction of FBS-directed cell migration although to different extent. Peptides RI-1, RI-2, RI-3, RI-4 and RI-5 reduced by 49%, 46%, 65%, 9% and 6%, respectively, the extent of FBS-directed cell migration. Similar results were obtained when, HT1080 cell migration was monitored in real time for 18 hrs at 37° C., 5% CO2 by the xCELLigence system. Data represent mean±SD from a quadruplicate experiment representative of 2 replicates (B). Then, HT1080 cells were allowed to migrate in Boyden chambers toward 10% FBS plus increasing concentrations of RI-3, and data were expressed as a percentage of cells migrated toward FBS alone (100%) Inhibitory effect of RI-3 is dose-dependent, it starts in the high fM range, it seems to level off in the nM range and reaches an overall 50% reduction at 1×10^−13M (C).

Structure (SMILES): CC(=O)N[C@H](Cc1ccc(O)cc1)C(=O)N[C@H](CCCNC(=N)N)C(=O)NC(C)(C)C(=O)N[C@H](CCCNC(=N)N)C(N)=O [RI-3, Ac-(D)-Tyr-(D)-Arg-Aib-(D)-Arg-NH2] (Ac-[dY][dR][Aib][dR]-NH2)
- reduction of matrigel invasion [1]: ~57%
- reduction of VEGF-dependent tube formation (HUVECs; 40 ng/ml VEGF165, 6 hrs): 75%
- reduction of FBS-dependent tube formation (HUVECs; 10% FBS, 6 hrs): 61%
- inhibition of the capability to disrupt endothelial monolayers (melanoma A375): 22%
- reduction of the extent of FBS-directed cell migration (HT1080 cells): 65%
